For orientation: IC50 means the concentration at which inhibition is half-maximal. The low end stands for greater potency, the high end for weaker potency. As usually defined, the half-life is the time in which the quantity being followed falls by half. A low value points to fast loss. By bioavailability is commonly meant the share of a dose that reaches the circulation, judged against a reference dose that is usually intravenous. Lower therefore signals poor availability. Broadly, the Cmax is the peak of the concentration-time curve. For orientation: clearance means a measure of how efficiently the substance is removed, as volume per time. For orientation: EC50 means the concentration at which the effect is half-maximal. Read a high EC50 as a need for much substance. In general, Tmax refers to the time at which the peak concentration occurs.

From ChEMBL document CHEMBL1148543, “Discovery of A-770041, a src-family selective orally active lck inhibitor that prevents organ allograft rejection” (Bioorg Med Chem Lett, 2006) come the findings set out here.

Data set [1] deals with Tyrosine-protein kinase Fyn (Homo sapiens, UniProt P06241). The data set can be described thus: Inhibitory activity against fyn.
Tyrosine-protein kinase Fyn, sequence (P06241 whole entry): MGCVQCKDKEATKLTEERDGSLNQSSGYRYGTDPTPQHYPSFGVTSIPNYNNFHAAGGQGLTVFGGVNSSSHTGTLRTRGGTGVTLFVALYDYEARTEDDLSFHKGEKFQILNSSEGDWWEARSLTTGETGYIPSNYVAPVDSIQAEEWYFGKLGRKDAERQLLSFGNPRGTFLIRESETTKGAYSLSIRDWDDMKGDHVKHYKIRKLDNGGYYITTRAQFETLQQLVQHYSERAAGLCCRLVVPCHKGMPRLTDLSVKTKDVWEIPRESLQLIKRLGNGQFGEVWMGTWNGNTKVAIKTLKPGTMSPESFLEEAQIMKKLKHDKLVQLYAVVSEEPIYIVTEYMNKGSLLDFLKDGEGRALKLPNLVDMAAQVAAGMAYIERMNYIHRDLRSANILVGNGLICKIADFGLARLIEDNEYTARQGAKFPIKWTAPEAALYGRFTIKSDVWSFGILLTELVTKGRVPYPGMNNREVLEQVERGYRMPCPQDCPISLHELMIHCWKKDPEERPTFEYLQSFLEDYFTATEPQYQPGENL
Data set [2] addresses T1, Tyrosine-protein kinase Lck (Homo sapiens, UniProt P06239). The data set can be described thus: Inhibitory activity against anti-CD3 mAb-induced IL2 production in human whole blood. The data set is classed as functional, tissue-based.
Data set [3] is described as follows: Half life in mouse. The data set is classed as ADME, organism-based. The following applies: in vivo.
The nature of data set [4]: Oral bioavailability in mouse. The data set is classed as ADME, organism-based. As to conditions: in vivo.
For data set [5], the target named is T1, Tyrosine-protein kinase Lck. The data set can be described thus: Inhibitory activity against lck.
Data set [6] has as its target Proto-oncogene tyrosine-protein kinase LCK (Mus musculus) (UniProt P06240).
Data set [7] has as its target Proto-oncogene tyrosine-protein kinase Src (Homo sapiens, UniProt P12931). In words: Inhibitory activity against src.
Data set [8] deals with Rattus norvegicus. The data set can be described thus: Plasma concentration in rat at 5 mg/kg/day. The following applies: in vivo. The data set is classed as ADME, organism-based.
Data set [9] has as its system Rattus norvegicus. The data set can be described thus: Plasma concentration in rat at 10 mg/kg/day. The following applies: in vivo. The data set is classed as ADME, organism-based.
Data set [10] is described as follows: Cmax in mouse. The data set is classed as ADME, organism-based. The following applies: in vivo.
Data set [11] can be described thus: Cmax in rat. The data set is classed as ADME, organism-based. As to conditions: in vivo.
The nature of data set [12]: Volume of distribution in rat. The data set is classed as ADME, organism-based. The following applies: in vivo, read-out: Vdss.
For data set [13], the species on record is Rattus norvegicus. In words: Plasma concentration in rat at […]. The data set is classed as ADME, organism-based. The following applies: in vivo.
Data set [14] can be described thus: Plasma clearance in mouse. The data set is classed as ADME, organism-based.
Data set [15] has as its target Tyrosine-protein kinase Fgr (Homo sapiens, UniProt P09769). The data set can be described thus: Inhibitory activity against fgr.
Data set [16] deals with Proto-oncogene tyrosine-protein kinase LCK (Mus musculus, UniProt P06240). In words: Inhibition of TCR stimulated IL2 production in mice administered orally. Format: functional.
Data set [17] in a line: Oral bioavailability in rat. Format: ADME, organism-based. The following applies: in vivo.
Data set [18] can be described thus: Volume of distribution in mouse. The data set is classed as ADME, organism-based. As to conditions: in vivo, read-out: Vdss.
Data set [19] is described as follows: Plasma clearance in rat. The data set is classed as ADME, organism-based.
In data set [20] the target is Mitogen-activated protein kinase kinase kinase 8 (Homo sapiens, UniProt P41279). The data set can be described thus: Inhibitory activity against COT.
Mitogen-activated protein kinase kinase kinase 8, sequence (P41279 whole entry): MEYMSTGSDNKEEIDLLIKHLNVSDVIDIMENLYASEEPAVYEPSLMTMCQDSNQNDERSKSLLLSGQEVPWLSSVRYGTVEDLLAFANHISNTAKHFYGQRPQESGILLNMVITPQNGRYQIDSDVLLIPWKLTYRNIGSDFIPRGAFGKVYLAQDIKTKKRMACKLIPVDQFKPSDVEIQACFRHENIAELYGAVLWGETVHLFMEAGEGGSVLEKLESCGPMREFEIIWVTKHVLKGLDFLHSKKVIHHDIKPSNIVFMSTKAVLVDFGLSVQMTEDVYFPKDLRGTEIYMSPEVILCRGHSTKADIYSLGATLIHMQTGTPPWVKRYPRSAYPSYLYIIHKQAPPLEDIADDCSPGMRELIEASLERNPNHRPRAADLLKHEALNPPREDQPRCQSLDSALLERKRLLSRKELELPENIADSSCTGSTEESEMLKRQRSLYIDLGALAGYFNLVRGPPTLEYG
Data set [21] in a line: Tmax in mouse. The data set is classed as ADME, organism-based. The following applies: in vivo.
The nature of data set [22]: Tmax in rat. The data set is classed as ADME, organism-based. As to conditions: in vivo.
Another data set addresses Angiopoietin-1 receptor (Homo sapiens, UniProt Q02763). In words: Inhibitory activity against tie2.
A short description of data set [23]: Half life in rat. The data set is classed as ADME, organism-based. As to conditions: in vivo.
Data set [24] concerns the target T2, Tyrosine-protein kinase ZAP-70 (Homo sapiens, UniProt P43403).
T2 sequence (P43403 whole entry): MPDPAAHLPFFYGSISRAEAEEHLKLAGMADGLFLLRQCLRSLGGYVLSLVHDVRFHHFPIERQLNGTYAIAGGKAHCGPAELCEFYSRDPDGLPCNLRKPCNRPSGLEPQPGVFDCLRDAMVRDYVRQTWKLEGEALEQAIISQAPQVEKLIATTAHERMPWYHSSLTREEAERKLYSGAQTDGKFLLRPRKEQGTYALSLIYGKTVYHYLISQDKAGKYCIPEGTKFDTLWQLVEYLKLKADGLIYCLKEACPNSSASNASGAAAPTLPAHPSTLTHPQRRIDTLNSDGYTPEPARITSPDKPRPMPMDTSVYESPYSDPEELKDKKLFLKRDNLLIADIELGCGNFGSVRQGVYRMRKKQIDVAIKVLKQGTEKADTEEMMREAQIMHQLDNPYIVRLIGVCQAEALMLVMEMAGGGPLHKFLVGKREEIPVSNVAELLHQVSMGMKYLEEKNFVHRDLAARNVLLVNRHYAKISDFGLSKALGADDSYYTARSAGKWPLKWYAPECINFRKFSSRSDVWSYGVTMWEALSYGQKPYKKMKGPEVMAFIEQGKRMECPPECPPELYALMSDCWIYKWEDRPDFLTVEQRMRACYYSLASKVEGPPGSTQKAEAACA
The data set can be described thus: Inhibitory activity against ZAP70.

In data set [25] the target is Tyrosine-protein kinase SYK (Homo sapiens, UniProt P43405). The data set can be described thus: Inhibitory activity against Syk.
In data set [26] the target is Tyrosine-protein kinase Lyn (Homo sapiens, UniProt P07948). The data set can be described thus: Inhibitory activity against lyn.
Tyrosine-protein kinase Lyn, sequence (P07948 whole entry): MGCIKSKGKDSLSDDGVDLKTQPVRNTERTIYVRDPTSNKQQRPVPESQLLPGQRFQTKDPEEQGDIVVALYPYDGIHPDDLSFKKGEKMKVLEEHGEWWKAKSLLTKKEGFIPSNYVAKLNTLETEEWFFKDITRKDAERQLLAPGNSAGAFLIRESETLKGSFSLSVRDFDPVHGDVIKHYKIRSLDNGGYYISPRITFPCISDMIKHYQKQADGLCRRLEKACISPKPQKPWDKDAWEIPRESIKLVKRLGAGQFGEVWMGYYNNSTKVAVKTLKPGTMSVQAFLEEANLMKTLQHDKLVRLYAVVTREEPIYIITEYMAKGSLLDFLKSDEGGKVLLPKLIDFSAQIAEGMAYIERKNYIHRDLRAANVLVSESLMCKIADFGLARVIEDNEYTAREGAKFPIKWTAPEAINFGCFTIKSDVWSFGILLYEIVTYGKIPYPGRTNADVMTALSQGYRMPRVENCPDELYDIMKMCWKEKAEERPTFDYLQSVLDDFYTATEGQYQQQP

T1 sequence (P06239 whole entry): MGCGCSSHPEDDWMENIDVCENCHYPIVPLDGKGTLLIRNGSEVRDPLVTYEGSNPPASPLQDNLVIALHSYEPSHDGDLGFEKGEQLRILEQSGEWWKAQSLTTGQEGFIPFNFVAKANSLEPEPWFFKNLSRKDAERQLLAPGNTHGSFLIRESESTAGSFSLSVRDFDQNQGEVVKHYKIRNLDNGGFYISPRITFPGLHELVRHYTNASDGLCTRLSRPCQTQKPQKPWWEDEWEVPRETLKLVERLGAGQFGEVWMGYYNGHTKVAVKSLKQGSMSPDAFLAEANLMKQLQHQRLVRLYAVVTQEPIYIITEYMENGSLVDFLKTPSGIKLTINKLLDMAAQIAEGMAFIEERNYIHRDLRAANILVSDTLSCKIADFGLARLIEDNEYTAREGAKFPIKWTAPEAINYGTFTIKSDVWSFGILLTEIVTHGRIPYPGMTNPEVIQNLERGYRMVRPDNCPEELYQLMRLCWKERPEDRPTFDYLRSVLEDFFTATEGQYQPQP
Proto-oncogene tyrosine-protein kinase LCK (Mus musculus), sequence (P06240 2-509 limits assumed): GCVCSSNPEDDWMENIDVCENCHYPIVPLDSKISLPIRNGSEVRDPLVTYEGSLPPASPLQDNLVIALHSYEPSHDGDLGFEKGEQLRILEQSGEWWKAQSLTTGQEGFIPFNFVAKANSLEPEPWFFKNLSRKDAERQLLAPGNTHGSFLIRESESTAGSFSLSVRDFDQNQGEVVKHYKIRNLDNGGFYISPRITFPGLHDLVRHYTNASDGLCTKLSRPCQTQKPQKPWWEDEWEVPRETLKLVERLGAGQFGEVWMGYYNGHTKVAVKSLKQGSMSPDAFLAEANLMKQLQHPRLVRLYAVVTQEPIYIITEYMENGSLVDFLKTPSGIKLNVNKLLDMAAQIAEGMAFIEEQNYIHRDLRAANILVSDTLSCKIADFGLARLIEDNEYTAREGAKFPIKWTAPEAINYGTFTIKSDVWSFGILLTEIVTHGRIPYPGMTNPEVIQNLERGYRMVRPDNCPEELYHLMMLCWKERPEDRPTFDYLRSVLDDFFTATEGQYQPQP
Proto-oncogene tyrosine-protein kinase Src, sequence (P12931 2-536 limits assumed): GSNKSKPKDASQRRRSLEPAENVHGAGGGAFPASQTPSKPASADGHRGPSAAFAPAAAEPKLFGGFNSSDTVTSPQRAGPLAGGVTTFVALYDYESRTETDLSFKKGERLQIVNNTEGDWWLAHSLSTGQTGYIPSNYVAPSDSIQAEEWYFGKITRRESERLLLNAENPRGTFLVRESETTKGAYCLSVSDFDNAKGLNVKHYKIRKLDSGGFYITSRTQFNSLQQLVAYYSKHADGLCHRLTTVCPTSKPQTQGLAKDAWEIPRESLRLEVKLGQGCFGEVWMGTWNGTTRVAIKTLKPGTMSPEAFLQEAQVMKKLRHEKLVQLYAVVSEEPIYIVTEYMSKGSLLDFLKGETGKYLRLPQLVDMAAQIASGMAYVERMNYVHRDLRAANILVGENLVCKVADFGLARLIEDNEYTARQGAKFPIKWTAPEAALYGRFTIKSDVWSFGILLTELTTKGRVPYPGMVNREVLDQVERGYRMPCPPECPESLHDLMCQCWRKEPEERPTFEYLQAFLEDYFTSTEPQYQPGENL
Angiopoietin-1 receptor, sequence (Q02763 whole entry): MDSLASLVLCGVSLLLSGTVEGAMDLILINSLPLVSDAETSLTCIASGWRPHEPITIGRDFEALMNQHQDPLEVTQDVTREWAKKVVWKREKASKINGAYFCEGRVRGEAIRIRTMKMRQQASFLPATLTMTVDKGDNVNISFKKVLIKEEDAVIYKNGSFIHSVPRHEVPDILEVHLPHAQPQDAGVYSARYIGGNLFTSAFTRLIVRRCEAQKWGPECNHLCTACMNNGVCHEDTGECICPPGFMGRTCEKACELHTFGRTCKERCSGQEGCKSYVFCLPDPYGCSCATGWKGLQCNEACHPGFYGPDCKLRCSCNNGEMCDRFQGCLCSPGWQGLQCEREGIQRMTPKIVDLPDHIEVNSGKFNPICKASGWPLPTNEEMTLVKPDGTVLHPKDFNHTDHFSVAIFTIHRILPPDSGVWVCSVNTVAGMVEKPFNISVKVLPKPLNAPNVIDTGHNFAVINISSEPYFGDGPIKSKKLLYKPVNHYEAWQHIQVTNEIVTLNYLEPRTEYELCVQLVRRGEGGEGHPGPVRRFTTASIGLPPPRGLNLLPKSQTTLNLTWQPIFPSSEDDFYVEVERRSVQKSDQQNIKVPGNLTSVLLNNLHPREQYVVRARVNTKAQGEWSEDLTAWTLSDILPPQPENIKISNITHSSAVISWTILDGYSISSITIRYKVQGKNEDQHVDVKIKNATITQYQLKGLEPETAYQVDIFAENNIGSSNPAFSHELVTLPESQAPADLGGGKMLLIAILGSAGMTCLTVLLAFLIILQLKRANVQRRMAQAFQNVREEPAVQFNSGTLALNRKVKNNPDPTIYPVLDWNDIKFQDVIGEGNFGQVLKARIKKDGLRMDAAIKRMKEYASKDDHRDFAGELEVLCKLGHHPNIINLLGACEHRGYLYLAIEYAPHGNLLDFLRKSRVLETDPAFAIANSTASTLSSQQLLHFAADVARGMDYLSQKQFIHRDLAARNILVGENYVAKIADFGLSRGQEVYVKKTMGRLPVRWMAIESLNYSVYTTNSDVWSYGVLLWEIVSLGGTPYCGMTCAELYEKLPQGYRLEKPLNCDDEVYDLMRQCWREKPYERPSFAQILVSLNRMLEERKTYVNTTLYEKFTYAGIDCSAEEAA
Tyrosine-protein kinase Fgr, sequence (P09769 whole entry): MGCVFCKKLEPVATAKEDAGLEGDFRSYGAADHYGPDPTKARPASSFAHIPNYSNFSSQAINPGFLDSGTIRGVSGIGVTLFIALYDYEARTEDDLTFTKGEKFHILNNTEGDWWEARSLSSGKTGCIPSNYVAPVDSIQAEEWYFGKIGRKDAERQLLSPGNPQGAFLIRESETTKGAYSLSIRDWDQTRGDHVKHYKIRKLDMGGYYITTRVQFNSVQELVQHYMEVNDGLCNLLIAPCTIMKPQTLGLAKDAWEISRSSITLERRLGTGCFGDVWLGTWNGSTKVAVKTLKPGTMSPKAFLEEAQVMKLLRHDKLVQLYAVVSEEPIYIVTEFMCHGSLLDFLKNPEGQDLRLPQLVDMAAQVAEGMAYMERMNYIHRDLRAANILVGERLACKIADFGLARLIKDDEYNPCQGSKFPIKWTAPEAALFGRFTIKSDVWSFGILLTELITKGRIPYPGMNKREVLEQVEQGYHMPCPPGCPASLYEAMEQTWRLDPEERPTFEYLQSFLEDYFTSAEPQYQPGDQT

As for `COc1cc(-c2nn(C3CCN(C4CCOCC4)CC3)c3ncnc(N)c23)ccc1NC(=O)c1cc2ccccc2n1C`, the results for the IC50 in data set [1], in data set [2] and in data set [5] were above 50000 nM, 20 nM and 107 nM, respectively. In data set [3], this compound showed a half-life of 3.1 h. This compound also yielded a bioavailability in data set [4] of 93%. The compound also came in with an ED90 in data set [6] of 15.5 mg/kg.
For `COc1cc(-c2nn(C3CCN(C4CCN(C(C)=O)CC4)CC3)c3ncnc(N)c23)ccc1NC(=O)c1cc2ccccc2n1C`, the IC50 in data set [1] was at least 50000 nM; in data set [5], 74 nM; in data set [7] it was 17200 nM. In data set [6], this compound had an ED90 of 19 mg/kg.
On to `COc1cc(-c2nn(C3CCN(C4CCOCC4)CC3)c3ncnc(N)c23)ccc1NC(=O)c1cccc(O)c1`, for which the IC50 in data set [1] is above 50000 nM; in data set [5] it was 23200 nM.
In the case of `COc1cc(-c2nn(C3CCN(C)CC3)c3ncnc(N)c23)ccc1NC(=O)c1ccc(C(F)(F)F)cc1F`, the IC50 in [1] was above 50000 nM; in [2], 30 nM; in data set [5] it was 106 nM.
The corresponding values for `COc1cc(-c2nn(C3CCN(C4CCOCC4)CC3)c3ncnc(N)c23)ccc1NC(=O)c1ccc(N(C)C)cc1` are above 50000 nM, 35 nM and 106 nM.
Take `COc1cc(-c2nn(C3CCN(C4CCN(C(C)=O)CC4)CC3)c3ncnc(N)c23)ccc1NC(=O)c1ccc(C(F)(F)F)cc1F`: the IC50 was above 50000 nM in [1], 30 nM in data set [2] and 93 nM in data set [5].
On to `COc1cc(-c2nn(C3CCN(C4CCOCC4)CC3)c3ncnc(N)c23)ccc1NC(=O)c1cc(O)c2ccccc2n1`, for which the IC50 was above 50000 nM in data set [1] and 9180 nM in data set [5].
Regarding `COc1cc(-c2nn(C3CCN(C4CCOCC4)CC3)c3ncnc(N)c23)ccc1NC(=O)c1ccc(C(F)(F)F)cc1F`, the IC50 was above 50000 nM in data set [1], 40 nM in data set [2] and 102 nM in data set [5].
For `COc1cc(-c2nn(C3CCN(C4CCOCC4)CC3)c3ncnc(N)c23)ccc1NC(=O)c1nc2ccccc2n1C`, the IC50 in [1] is above 50000 nM; in data set [2], 54 nM; in data set [5], 318 nM.
For `COc1cc(-c2nn(C3CCN(C4CCN(C)CC4)CC3)c3ncnc(N)c23)ccc1NC(=O)c1ccc(C(F)(F)F)cc1F`, in that order: 1070 nM, 20 nM and 23 nM.
With `COc1cc(-c2nn(C3CCN(C4CCOCC4)CC3)c3ncnc(N)c23)ccc1NC(=O)c1ccc(C)cc1`, the IC50 was above 50000 nM in data set [1] and 8960 nM in [5].
In the case of `COc1cc(-c2nn(C3CCN(Cc4ccccc4)CC3)c3ncnc(N)c23)ccc1NC(=O)c1ccc(C(F)(F)F)cc1F`, the IC50 in [1] is above 50000 nM; in data set [2] it was 540 nM; in [5], 341 nM.
For the compound `COc1cc(-c2nn(C3CCN(C4CCOCC4)CC3)c3ncnc(N)c23)ccc1NC(=O)c1cc2cc(C#N)ccc2n1C`, the IC50 was determined as 32500 nM in data set [1] and 3480 nM in data set [5].
As to `COc1cc(-c2nn(C3CCNCC3)c3ncnc(N)c23)ccc1NC(=O)c1ccc(C(F)(F)F)cc1F`, the IC50 in data set [1] was above 50000 nM; in data set [2], 50 nM; in data set [5] it was 80 nM.
As to `COc1cc(-c2nn(C3CCN(C4CCOCC4)CC3)c3ncnc(N)c23)ccc1NC(=O)c1cc2cc(C(N)=O)ccc2n1C`, the IC50 in data set [1] and in data set [5] was above 50000 nM in each case.
As for `COc1cc(-c2nn([C@H]3CC[C@H](N4CCN(C(C)=O)CC4)CC3)c3ncnc(N)c23)ccc1NC(=O)c1cc2ccccc2n1C`, the results for the concentration in the data set with Rattus norvegicus [8], with Rattus norvegicus [9] and in the data set listed under Rattus norvegicus [13] were 1060 nM, 2900 nM and 350 nM, respectively. The results for the Cmax in data set [10] and in data set [11] were 387 ng/mL and 2080 ng/mL, respectively. Moreover, the values for the Vd in data set [12] and in data set [18] were 1.2 L/kg and 10.3 L/kg, respectively. The IC50 in data set [2] is 80 nM; in data set [5], 147 nM; in data set [15], 14100 nM; in data set [20] it was above 25000 nM; against Angiopoietin-1 receptor, above 50000 nM; in data set [24] it was above 25000 nM. The IC50 is above 25000 nM in data set [25] and 1180 nM in [26]. In addition, the half-life in data set [3] is 4.7 h; in data set [23] it was 4.1 h. Further, the clearance in data set [14] is 25 mL/min/kg; in data set [19], 3.33 mL/min/kg. Also, the figures for the bioavailability in data set [4] and in data set [17] were 27% and 52%, respectively. This compound also returned an EC50 in data set [16] of 78 nM. Moreover, the Tmax worked out at 1 h in data set [21] and 4.7 h in data set [22].
In the case of `COc1cc(-c2nn(C3CCN(C4CCOCC4)CC3)c3ncnc(N)c23)ccc1NC(=O)c1cc2cc(Cl)ccc2n1C`, the IC50 was 13600 nM in [1], 13 nM in [2] and 54 nM in [5].
With `COc1cc(-c2nn(C3CCN(C4CCOCC4)CC3)c3ncnc(N)c23)ccc1NC(=O)c1ccc(OC(F)(F)F)cc1`, the figures for the IC50 in [1] and in [5] were above 50000 nM and 2350 nM, respectively.
